Measured values taken from ChEMBL document CHEMBL3991601, “The target landscape of clinical kinase drugs” (Science, 2017).
Activity calls are given as the source filed them.

Legend:
DNA topoisomerase 2-beta = DNA topoisomerase 2-beta (Homo sapiens, UniProt Q02880)
[1] = target: T1, ATP-dependent RNA helicase DHX30 (Homo sapiens, UniProt Q7L2E3)
T1 sequence (Q7L2E3 whole entry): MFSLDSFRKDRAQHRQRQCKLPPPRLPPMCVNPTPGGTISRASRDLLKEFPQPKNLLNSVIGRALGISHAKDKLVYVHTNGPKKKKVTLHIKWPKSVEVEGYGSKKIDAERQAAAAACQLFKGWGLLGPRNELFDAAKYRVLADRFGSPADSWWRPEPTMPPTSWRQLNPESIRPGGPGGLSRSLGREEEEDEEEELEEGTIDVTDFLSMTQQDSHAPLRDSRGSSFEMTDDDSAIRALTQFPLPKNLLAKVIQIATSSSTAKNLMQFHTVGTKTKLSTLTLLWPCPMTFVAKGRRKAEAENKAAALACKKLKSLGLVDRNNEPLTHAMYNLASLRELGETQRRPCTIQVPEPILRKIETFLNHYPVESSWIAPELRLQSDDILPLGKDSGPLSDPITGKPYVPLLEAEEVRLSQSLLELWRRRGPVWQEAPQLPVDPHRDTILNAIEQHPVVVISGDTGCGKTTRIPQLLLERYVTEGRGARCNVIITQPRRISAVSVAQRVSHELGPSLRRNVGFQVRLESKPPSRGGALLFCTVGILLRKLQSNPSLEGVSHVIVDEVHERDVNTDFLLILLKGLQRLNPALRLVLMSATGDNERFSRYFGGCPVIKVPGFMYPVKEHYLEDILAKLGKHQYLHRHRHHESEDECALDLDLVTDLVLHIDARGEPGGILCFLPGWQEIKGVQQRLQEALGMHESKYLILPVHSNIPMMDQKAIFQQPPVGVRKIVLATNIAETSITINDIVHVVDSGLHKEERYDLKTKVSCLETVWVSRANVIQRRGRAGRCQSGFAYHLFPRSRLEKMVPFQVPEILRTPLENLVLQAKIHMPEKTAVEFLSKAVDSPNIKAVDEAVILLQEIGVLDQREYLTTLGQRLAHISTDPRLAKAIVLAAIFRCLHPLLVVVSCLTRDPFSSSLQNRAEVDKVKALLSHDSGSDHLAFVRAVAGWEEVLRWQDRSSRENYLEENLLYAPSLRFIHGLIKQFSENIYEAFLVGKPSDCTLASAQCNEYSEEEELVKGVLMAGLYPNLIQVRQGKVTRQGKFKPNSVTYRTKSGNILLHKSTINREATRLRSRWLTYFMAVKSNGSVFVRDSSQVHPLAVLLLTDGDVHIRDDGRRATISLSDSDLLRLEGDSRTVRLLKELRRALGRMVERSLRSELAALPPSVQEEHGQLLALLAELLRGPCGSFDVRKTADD

Septin-9 = target: T2, Septin-9 (Homo sapiens, UniProt Q9UHD8)
T2 sequence (Q9UHD8 whole entry): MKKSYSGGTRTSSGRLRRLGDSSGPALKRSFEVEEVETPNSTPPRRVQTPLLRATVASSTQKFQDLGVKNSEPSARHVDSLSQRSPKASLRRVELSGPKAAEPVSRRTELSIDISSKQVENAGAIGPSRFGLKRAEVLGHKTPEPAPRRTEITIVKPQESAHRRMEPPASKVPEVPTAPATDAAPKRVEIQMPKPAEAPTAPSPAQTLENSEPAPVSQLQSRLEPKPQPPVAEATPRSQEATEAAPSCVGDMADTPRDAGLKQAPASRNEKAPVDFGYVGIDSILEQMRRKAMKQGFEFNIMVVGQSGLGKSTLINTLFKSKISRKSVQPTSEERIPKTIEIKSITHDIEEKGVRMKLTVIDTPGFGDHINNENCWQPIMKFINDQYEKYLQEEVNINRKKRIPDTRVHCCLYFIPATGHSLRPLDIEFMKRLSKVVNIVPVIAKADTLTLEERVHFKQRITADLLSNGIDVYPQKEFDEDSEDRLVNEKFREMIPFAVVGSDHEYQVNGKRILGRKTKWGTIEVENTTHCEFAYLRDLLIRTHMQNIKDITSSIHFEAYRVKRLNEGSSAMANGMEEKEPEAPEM

[2] = target: Mitogen-activated protein kinase 10 (Homo sapiens, UniProt P53779)
Sequence of Mitogen-activated protein kinase 10 (P53779 whole entry): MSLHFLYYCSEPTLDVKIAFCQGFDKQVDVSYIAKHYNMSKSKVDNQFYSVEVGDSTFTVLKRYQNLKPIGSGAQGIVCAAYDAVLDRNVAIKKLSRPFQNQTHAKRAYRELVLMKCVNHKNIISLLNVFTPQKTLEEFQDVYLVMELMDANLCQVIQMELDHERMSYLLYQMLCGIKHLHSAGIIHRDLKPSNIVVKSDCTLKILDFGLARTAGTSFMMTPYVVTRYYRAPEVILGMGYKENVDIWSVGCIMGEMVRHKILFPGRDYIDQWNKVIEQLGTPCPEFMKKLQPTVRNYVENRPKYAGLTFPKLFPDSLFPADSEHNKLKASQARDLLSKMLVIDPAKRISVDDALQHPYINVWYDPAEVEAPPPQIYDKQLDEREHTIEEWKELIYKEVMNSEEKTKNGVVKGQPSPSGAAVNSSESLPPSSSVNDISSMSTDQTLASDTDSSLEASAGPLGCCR

[3] = target: Serine/threonine-protein kinase/endoribonuclease IRE1 (Homo sapiens, UniProt O75460)
Sequence of Serine/threonine-protein kinase/endoribonuclease IRE1 (O75460 whole entry): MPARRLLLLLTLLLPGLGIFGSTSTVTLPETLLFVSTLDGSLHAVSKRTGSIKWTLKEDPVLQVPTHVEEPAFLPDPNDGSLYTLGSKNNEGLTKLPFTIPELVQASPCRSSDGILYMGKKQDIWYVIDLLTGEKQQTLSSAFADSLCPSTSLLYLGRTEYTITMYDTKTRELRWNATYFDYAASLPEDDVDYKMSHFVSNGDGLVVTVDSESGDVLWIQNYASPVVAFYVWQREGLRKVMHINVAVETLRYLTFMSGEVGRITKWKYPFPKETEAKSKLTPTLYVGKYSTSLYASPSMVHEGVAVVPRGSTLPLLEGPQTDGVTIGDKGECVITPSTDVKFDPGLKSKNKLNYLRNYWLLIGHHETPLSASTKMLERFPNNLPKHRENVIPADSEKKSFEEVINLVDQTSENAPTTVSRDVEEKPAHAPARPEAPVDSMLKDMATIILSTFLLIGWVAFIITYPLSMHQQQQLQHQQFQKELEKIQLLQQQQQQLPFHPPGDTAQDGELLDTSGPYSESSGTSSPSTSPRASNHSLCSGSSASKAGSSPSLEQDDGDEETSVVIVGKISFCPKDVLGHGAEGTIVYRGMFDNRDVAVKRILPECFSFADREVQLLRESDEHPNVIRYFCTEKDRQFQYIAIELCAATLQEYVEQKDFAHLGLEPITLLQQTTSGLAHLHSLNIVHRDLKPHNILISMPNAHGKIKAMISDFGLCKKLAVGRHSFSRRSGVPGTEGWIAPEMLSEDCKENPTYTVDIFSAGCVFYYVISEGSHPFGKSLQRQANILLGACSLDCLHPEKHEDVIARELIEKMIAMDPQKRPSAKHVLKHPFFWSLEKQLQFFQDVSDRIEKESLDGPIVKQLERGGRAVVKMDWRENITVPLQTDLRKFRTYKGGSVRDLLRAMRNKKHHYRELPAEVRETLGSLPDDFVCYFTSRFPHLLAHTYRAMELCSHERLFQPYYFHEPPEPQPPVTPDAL

[4] = target: Chromodomain-helicase-DNA-binding protein 4 (Homo sapiens, UniProt Q14839)
Sequence of Chromodomain-helicase-DNA-binding protein 4 (Q14839 whole entry): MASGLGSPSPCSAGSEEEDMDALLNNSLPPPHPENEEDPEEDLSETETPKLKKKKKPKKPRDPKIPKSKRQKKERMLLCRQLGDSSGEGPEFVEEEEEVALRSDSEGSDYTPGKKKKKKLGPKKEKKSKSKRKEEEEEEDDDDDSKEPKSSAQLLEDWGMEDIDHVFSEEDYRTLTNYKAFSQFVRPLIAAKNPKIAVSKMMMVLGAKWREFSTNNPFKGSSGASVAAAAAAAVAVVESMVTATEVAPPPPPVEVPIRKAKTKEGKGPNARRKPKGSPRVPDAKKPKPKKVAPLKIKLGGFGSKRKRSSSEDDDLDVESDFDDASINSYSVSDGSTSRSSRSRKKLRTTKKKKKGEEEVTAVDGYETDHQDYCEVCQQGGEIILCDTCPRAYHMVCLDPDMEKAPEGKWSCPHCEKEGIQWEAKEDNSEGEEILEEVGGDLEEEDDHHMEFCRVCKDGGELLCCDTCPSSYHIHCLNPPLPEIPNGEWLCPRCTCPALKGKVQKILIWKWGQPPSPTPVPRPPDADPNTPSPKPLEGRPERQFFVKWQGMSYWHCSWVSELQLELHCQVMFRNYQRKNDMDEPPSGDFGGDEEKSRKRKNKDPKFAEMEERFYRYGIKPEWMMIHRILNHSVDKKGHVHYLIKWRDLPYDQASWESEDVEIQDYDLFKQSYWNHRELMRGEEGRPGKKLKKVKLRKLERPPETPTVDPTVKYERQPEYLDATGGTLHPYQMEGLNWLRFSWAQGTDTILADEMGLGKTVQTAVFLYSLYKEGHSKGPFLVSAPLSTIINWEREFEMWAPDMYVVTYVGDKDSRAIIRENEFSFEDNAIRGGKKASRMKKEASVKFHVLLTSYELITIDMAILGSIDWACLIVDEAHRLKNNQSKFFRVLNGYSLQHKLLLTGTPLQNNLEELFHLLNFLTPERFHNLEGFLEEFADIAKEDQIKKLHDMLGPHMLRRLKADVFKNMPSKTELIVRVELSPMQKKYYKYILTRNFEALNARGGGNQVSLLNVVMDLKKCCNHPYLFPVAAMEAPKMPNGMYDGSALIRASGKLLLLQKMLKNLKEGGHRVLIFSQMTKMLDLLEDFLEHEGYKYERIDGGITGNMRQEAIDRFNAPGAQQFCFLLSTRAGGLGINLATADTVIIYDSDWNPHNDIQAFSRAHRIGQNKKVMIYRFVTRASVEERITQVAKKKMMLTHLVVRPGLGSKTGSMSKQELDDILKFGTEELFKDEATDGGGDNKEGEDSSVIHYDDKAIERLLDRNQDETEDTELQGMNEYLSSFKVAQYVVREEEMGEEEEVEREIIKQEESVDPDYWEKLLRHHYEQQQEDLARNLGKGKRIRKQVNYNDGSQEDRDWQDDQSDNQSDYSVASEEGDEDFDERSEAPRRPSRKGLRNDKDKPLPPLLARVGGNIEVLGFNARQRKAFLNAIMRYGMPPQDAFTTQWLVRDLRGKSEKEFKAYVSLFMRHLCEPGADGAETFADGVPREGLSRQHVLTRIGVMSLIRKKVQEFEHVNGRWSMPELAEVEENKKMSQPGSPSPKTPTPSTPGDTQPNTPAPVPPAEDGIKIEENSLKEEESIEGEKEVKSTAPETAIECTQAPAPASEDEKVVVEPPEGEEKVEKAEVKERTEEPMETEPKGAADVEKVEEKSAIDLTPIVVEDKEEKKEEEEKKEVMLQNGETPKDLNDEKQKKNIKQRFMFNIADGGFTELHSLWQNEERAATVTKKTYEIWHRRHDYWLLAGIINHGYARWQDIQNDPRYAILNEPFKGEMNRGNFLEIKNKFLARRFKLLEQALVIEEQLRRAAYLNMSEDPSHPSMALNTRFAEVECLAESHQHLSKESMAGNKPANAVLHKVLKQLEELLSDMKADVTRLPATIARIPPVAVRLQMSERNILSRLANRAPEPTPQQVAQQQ

[5] = target: Cyclin-dependent kinase 17 (Homo sapiens, UniProt Q00537)
[6] = target: NADH dehydrogenase [ubiquinone] 1 alpha subcomplex subunit 13 (Homo sapiens, UniProt Q9P0J0)
Sequence of NADH dehydrogenase [ubiquinone] 1 alpha subcomplex subunit 13 (Q9P0J0 whole entry, one chain of several): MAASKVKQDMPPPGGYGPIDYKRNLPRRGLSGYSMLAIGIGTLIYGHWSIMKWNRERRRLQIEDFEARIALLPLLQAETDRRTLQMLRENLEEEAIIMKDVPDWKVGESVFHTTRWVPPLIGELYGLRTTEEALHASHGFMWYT

[7] = target: Ribosomal protein S6 kinase alpha-5 (Homo sapiens, UniProt O75582)
[8] = target: Serine/threonine-protein kinase 10 (Homo sapiens, UniProt O94804)
Ephrin type-A receptor 4 = Ephrin type-A receptor 4 (Homo sapiens, UniProt P54764)
[9] = target: Dual specificity mitogen-activated protein kinase kinase 2 (Homo sapiens, UniProt P36507)
[10] = target: Ribosomal protein S6 kinase alpha-3 (Homo sapiens, UniProt P51812)
Also: in the data inactive means no Kd found up to 30 µM.

Sequence of DNA topoisomerase 2-beta (Q02880 whole entry): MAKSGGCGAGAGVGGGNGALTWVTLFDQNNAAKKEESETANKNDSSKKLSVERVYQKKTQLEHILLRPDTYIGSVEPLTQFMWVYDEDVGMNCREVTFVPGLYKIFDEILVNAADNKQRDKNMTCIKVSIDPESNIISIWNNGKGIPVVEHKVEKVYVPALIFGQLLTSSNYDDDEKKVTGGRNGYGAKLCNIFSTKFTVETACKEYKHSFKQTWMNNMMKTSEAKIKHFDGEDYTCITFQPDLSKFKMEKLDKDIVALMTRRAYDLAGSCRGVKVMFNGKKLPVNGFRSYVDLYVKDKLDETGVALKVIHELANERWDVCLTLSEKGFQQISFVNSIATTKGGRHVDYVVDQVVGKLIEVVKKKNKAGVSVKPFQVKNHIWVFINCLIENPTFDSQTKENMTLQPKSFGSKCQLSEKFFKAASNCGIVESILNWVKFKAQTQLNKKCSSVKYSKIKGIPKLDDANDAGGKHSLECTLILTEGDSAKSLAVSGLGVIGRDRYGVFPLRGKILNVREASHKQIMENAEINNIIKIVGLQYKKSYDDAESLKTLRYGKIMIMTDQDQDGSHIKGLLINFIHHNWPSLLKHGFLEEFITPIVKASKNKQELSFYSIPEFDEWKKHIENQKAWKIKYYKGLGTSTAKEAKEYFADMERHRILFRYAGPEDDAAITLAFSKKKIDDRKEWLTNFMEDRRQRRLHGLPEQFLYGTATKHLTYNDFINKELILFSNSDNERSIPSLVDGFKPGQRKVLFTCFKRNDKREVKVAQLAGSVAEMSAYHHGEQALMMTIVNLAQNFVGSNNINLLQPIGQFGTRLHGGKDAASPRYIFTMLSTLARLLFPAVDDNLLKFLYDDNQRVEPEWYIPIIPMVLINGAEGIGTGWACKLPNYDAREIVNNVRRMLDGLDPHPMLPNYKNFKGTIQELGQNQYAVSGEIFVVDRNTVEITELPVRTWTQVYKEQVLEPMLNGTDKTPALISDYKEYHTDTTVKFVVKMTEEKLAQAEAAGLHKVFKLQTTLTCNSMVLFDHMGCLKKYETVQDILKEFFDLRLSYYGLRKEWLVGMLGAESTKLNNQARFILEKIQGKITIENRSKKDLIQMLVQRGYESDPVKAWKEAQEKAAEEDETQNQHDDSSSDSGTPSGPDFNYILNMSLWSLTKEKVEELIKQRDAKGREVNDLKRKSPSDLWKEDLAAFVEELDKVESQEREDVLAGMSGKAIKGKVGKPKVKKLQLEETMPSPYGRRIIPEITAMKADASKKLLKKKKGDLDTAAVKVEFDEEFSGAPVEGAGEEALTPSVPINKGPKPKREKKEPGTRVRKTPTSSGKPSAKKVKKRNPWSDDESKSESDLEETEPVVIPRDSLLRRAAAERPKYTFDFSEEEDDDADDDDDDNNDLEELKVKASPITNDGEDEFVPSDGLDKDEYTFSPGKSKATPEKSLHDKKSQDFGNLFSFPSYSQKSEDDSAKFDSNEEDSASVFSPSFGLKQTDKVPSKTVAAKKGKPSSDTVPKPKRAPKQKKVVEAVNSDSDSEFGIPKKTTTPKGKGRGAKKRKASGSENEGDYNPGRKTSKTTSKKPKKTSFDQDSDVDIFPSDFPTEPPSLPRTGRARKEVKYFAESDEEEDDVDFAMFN

Kd (DNA topoisomerase 2-beta)	Kd [1]	Kd (Septin-9)	Kd [2]	Kd [3]	Kd [4]	Kd [5]	Kd [6]	Kd [7]	Kd [8]	Kd (Ephrin type-A receptor 4)	Kd [9]	Kd [10]	SMILES
> 30 µM (inactive)	> 30 µM (inactive)	> 30 µM (inactive)	–	–	> 30 µM (inactive)	–	> 30 µM (inactive)	–	–	–	–	–	C[C@@H](Oc1cc(-n2cnc3ccc(CN4CCN(C)CC4)cc32)sc1C(N)=O)c1ccccc1C(F)(F)F [GSK-461364]
> 30 µM (inactive)	> 30 µM (inactive)	> 30 µM (inactive)	> 30 µM (inactive)	> 30 µM (inactive)	–	> 30 µM (inactive)	> 30 µM (inactive)	> 30 µM (inactive)	> 30 µM (inactive)	> 30 µM (inactive)	> 30 µM (inactive)	–	CCn1cc(-c2ccnc3[nH]c(-c4cccc(CN(C)C)c4)cc23)c(-c2ccc(NC(=O)N(C)C)cc2)n1 [GSK-1070916]
> 30 µM (inactive)	> 30 µM (inactive)	> 30 µM (inactive)	> 30 µM (inactive)	> 30 µM (inactive)	> 30 µM (inactive)	–	> 30 µM (inactive)	–	0.515 µM (active)	> 30 µM (inactive)	–	–	NC(=O)c1c(OCc2c(F)cc(Br)cc2F)nsc1NC(=O)NCCCCN1CCCC1 [OSI-632]
> 30 µM (inactive)	–	> 30 µM (inactive)	> 30 µM (inactive)	3.64 µM (active)	> 30 µM (inactive)	> 30 µM (inactive)	–	> 30 µM (inactive)	0.309 µM (active)	> 30 µM (inactive)	–	–	CC(=O)NCC(=O)N1[C@@H]2CC[C@H]1c1ccc(Nc3ncc(C(F)(F)F)c(NC4CCC4)n3)cc12 [PF-03814735]
> 30 µM (inactive)	> 30 µM (inactive)	> 30 µM (inactive)	–	–	> 30 µM (inactive)	–	> 30 µM (inactive)	–	–	–	–	–	O=C(NOCCO)c1cc(CN2OCCCC2=O)c(F)c(F)c1Nc1ccc(I)cc1F [RO-4987655]

Continued, molecule first:

SMILES	Kd (DNA topoisomerase 2-beta)	Kd [1]	Kd (Septin-9)	Kd [2]	Kd [3]	Kd [4]	Kd [5]	Kd [6]	Kd [7]	Kd [8]	Kd (Ephrin type-A receptor 4)	Kd [9]	Kd [10]
COc1cc(Nc2ncc3c(n2)-c2ccc(Cl)cc2C(c2c(F)cccc2OC)=NC3)ccc1C(=O)O [ALISERTIB]	> 30 µM (inactive)	> 30 µM (inactive)	> 30 µM (inactive)	> 30 µM (inactive)	> 30 µM (inactive)	> 30 µM (inactive)	> 30 µM (inactive)	3.92 µM	> 30 µM (inactive)	> 30 µM (inactive)	–	–	–
CNC(=O)c1ccccc1Sc1ccc2c(/C=C/c3ccccn3)n[nH]c2c1 [AXITINIB]	> 30 µM (inactive)	> 30 µM (inactive)	> 30 µM (inactive)	–	–	> 30 µM (inactive)	–	> 30 µM (inactive)	–	–	–	–	–
CC(C)(C)c1nc(-c2cccc(NS(=O)(=O)c3c(F)cccc3F)c2F)c(-c2ccnc(N)n2)s1 [DABRAFENIB]	> 30 µM (inactive)	> 30 µM (inactive)	> 30 µM (inactive)	> 30 µM (inactive)	1.45 µM (active)	> 30 µM (inactive)	0.036 µM (active)	> 30 µM (inactive)	> 30 µM (inactive)	–	> 30 µM (inactive)	–	–
Cn1cc(C2=C(c3cn(C4CCN(Cc5ccccn5)CC4)c4ccccc34)C(=O)NC2=O)c2ccccc21 [ENZASTAURIN]	> 30 µM (inactive)	–	> 30 µM (inactive)	–	–	–	–	> 30 µM (inactive)	–	–	–	–	–
CNC(=O)c1nn(C)c2c1C(C)(C)Cc1cnc(Nc3ccc(N4CCN(C)CC4)cc3)nc1-2 [MILCICLIB]	> 30 µM (inactive)	–	> 30 µM (inactive)	–	> 30 µM (inactive)	–	–	> 30 µM (inactive)	> 30 µM (inactive)	> 30 µM (inactive)	8.13 µM (active)	> 30 µM (inactive)	> 30 µM (inactive)
Cc1[nH]c(/C=C2\C(=O)Nc3ccccc32)c(C)c1CCC(=O)O [ORANTINIB]	> 30 µM (inactive)	> 30 µM (inactive)	> 30 µM (inactive)	–	–	> 30 µM (inactive)	> 30 µM (inactive)	> 30 µM (inactive)	–	–	> 30 µM (inactive)	3.23 µM (active)	–
N#CC[C@H](C1CCCC1)n1cc(-c2ncnc3[nH]ccc23)cn1 [RUXOLITINIB]	> 30 µM (inactive)	–	> 30 µM (inactive)	–	–	> 30 µM (inactive)	–	> 30 µM (inactive)	–	–	–	–	–
